From patent US20250352527A1, “METHODS FOR TREATING VIRAL INFECTIONS, ORGAN INJURY, AND RELATED CONDITIONS” (Akebia Therapeutics, Inc., priority 2021, published 2025)
Entries after “also recorded” stand apart in the source; their conditions may differ.

Tests used:
[1] = Body weight change from day -2 in LPS-induced lung inflammation model; assay type: in vivo, mice; conditions: vs vehicle disease control; for body weight change from day -2: 6 hours post-LPS
Excerpt: (§1) All animals survived to study termination.
Body weight measurements were collected and the animals were euthanized for necropsy and terminal sample collection on day 0 or day 1.
The mice were weighed for randomization on study day −2 and were weighed again on day 0.

[2] = test system: TNFα; test: Luminex cytokine levels in BAL: TNFα; assay type: in vivo, mice; conditions: vs vehicle disease control
Excerpt: as §1
• 1. […] Seal the plate with a plate sealer.

[3] = test system: hospitalized patients with coronavirus disease 2019 (COVID-19); test: Randomized, double-blind, placebo-controlled clinical trial for prevention and treatment of ARDS; assay type: in vivo, human; conditions: 900 mg once daily for 14 days
Description: This example describes use of 5-(3-chlorophenyl)-3-hydroxypyridine-2-carbonyl]amino}acetic acid (vadadustat) in a multicenter, randomized, double-blind, placebo-controlled Bayesian adaptive clinical for the prevention and treatment of acute respiratory distress syndrome (ARDS) in hospitalized patients with coronavirus disease 2019 (COVID-19).
Following screening, patients are randomized in a 1:1 ratio to either vadadustat 900 mg or placebo. Randomization is stratified by site, and MSOFA score at baseline (<4 and >4).
A subject may receive vadadustat (e.g., 900 mg vadadustat as 6 tablets once daily) for 14 days and without regard for meals at approximately the same time each day. Tablets can be crushed using a pill crusher and administered to an intubated patient through a nasogastric tube.
Efficacy may also be assessed according to any of the following (including any combination thereof): • 1. The proportion of patients at day 14 who are dead (8) or hospitalized, on invasive mechanical ventilation or ECMO (7) or hospitalized, on non-invasive ventilation or high flow oxygen devices (6) on the NIAID-OS. • 2. Proportions of patients with a score of 0 at 14 days on the MSOFA (Modified Sequential Organ Failure Assessment) scale:
• 3. Average MSOFA scores at day 7 and day 14. • 4. Proportion of patients who develop ARDS or experienced increased ARDS severity from baseline based on the Berlin scale. • 5. Ventilator-free survival at day 7 and day 14. • 6. Overall survival at day 7 and day 14. • 7. Proportion of patients with hypotension (MAP (Mean Arterial Pressure)<70 mm Hg or requirement for inotropes or vasopressors to maintain blood pressure) at day 7 and day 14. • 8. Proportion of patients with acute kidney injury at day 7 and day 14. • 9. Time to hospital discharge.

[4] = test system: IL-6; test: Luminex cytokine levels in BAL: IL-6; conditions: vs vehicle disease control
[5] = 100 mg/kg PO single dose 1 h post-LPS, 8 hours post-LPS
[6] = 300 mg/kg PO single dose 1 h post-LPS, 8 hours post-LPS
[7] = 100 mg/kg PO QD days -2 to 0 (final dose 1 h pre-LPS), 6 hours post-LPS
[8] = 100 mg/kg PO QD days -2 to 0 (final dose 7 h post-LPS), 24 hours post-LPS
[9] = day 7 and day 14, compared to placebo

With O=C(O)CNC(=O)c1ncc(-c2cccc(Cl)c2)cc1O [Compound 1, {[5-(3-chlorophenyl)-3-hydroxypyridine-2-carbonyl]amino}acetic acid] the “absolute body weight change” value ([1]; 100 mg/kg PO QD days -2 to 0 (final dose 7 h post-LPS, 4 doses), 24 hours post-LPS) was “did not differ statistically”, the “absolute body weight change” value [1, 5] was “no significant differences” and the “body weight change from day -2” value ([1]; 300 mg/kg PO QD days -2 to 0 (final dose 1 h pre-LPS)) was “Significantly increased body weight loss; also recorded: statistically significant absolute weight loss”. For the same compound, the “absolute body weight change” value ([1]; 300 mg/kg PO QD days -2 to 0 (final dose 7 h post-LPS, 4 doses), 24 hours post-LPS) was “did not differ statistically”, the “absolute body weight change” value [1, 6] was “no significant differences” and the “TNFα levels in BAL fluids” value [2, 7] was “did not differ statistically”. The “TNFα levels in BAL fluids” value [2, 8] was “Significantly increased; also recorded: significant increases”, the “TNFα levels in BAL fluids” value [2, 5] was “decrease in IL-6 and TNFα levels at 8 hours post-LPS compared to vehicle disease control, though not statistically significant; also recorded: no significant differences” and the “TNFα levels in BAL fluids” value [2, 6] was “decrease in IL-6 and TNFα levels at 8 hours post-LPS compared to vehicle disease control, though not statistically significant; also recorded: no significant differences”. The “proportions of patients with a score of 0 on the MSOFA” value ([3]; at 14 days, compared to placebo) was “an increase”, the “proportion of patients who develop ARDS or experienced increased ARDS severity from baseline based on the Berlin scale” value ([3]; compared to placebo) was “a lower or a reduction” and the “average MSOFA scores” value [3, 9] was “a lower or a reduction”. For the same compound, the overall survival [3, 9] was “a greater or an increase”, the “proportion of patients with hypotension (MAP <70 mm Hg or requirement for inotropes or vasopressors)” value [3, 9] was “a lower or a reduction” and the ventilator-free survival [3, 9] was “a greater or an increase”. For the same compound, the “proportion of patients with acute kidney injury” value ([3]; day 7 and day 14, versus placebo) was “a lower or a reduction”, the “proportion of patients who are dead (8), on invasive mechanical ventilation or ECMO (7) or on non-invasive ventilation or high flow oxygen devices (6) on the NIAID-OS” value ([3]; day 14, compared to placebo) was “a lower or a reduction” and the “time to hospital discharge” value ([3]; versus placebo) was “a shorter or a reduction”. The “IL-6 levels in BAL fluids” value [4, 7] was “decrease in IL-6 levels at 6 hours post-LPS compared to vehicle disease control, though not statistically significant; also recorded: did not differ statistically”, the “IL-6 levels in BAL fluids” value [4, 8] was “Significantly increased; also recorded: significant increases” and the “IL-6 levels in BAL fluids” value [4, 5] was “decrease in IL-6 and TNFα levels at 8 hours post-LPS compared to vehicle disease control, though not statistically significant; also recorded: no significant differences”. For the same compound, the “IL-6 levels in BAL fluids” value ([4]; 300 mg/kg PO QD days -2 to 0 (final dose 1 h pre-LPS), 6 hours post-LPS) was “decrease in IL-6 levels at 6 hours post-LPS compared to vehicle disease control, though not statistically significant” and the “IL-6 levels in BAL fluids” value [4, 6] was “decrease in IL-6 and TNFα levels at 8 hours post-LPS compared to vehicle disease control, though not statistically significant; also recorded: no significant differences”.

In the case of C[C@@H]1C[C@H]2[C@@H]3CCC4=CC(=O)C=C[C@]4(C)[C@@]3(F)[C@@H](O)C[C@]2(C)[C@@]1(O)C(=O)CO [dexamethasone, reference compound], the “body weight change from day -2” value ([1]; 3 mg/kg PO 1x 1 h pre-LPS) is reported as “did not differ statistically”.
